Reference: paper PMC12022903, “Evaluation of drug-drug interaction between Suraxavir Marboxil (GP681) and itraconazole, and assessment of the impact of gene polymorphism” (Frontiers in Pharmacology, 2025)
Like-named read-outs stand apart in the source and are kept apart here.

Assays:
[1] = assay type: in vivo
Procedure: This single-center, open-label, self-controlled, fixed-sequence study, sponsored by Qingfeng Pharmaceutical Group Co., Ltd., was conducted at a single clinical research site in the China–Japan Friendship Hospital (Beijing, China). Each subject received the following treatment: Suraxavir Marboxil (GP681) 20 mg in the fasted state on day 1 and day 26. Itraconazole capsules (Sporanox®: Xi’an Yangsen Pharmaceutical Co., Ltd., China) 0.2 g twice daily (BID, bis in die) on day 22. Itraconazole 0.2 g daily from day 23 to day 36 [including day 26, when itraconazole was co-administrated with Suraxavir Marboxil (GP681)]. The washout period is 21 days (Figure 2).
Safety was assessed through physical examination, vital sign measurements, clinical laboratory tests, 12-lead electrocardiograms, and assessment of self-reported symptoms. Adverse events were collected from the first dose through the end of the study. All safety data collected were assessed for severity and relationship to each study drug, Suraxavir Marboxil (GP681) or itraconazole. The severity of an adverse event was graded according to Common Terminology Criteria for Adverse Events (CTCAE) v5.0. For each adverse event occurred, investigators continued to follow up until it was resolved. Adverse event analysis is based on Safety Set (SS), coded with MedDRA version 26.0. Adverse events will be summarized by system organ class (SOC) and preferred term (PT) in terms of number of cases, occurrences, and incidence rate.

[2] = tested on: BCRP; set-up: method as in unpublished data; conditions: preclinical studies; ref unpublished data; cited from earlier work
[3] = quantification limit 0.3 ng/mL
[4] = tested on: OATP1B3; set-up: method as in unpublished data; conditions: preclinical studies; ref unpublished data; cited from earlier work
[5] = tested on: MDR1; set-up: method as in unpublished data; conditions: preclinical studies; ref unpublished data; cited from earlier work
[6] = set-up: method as in unpublished data; conditions: within 336 h after oral administration; ref unpublished data; cited from earlier work
[7] = tested on: OAT3; set-up: method as in unpublished data; conditions: preclinical studies; ref unpublished data; cited from earlier work
[8] = tested on: carboxylesterase CES2; set-up: method as in unpublished data; conditions: preclinical studies; ref unpublished data; cited from earlier work
[9] = tested on: MDR1; set-up: method as in unpublished data; conditions: preclinical studies; ref unpublished data; cited from earlier work; remark: listed apart in the source
[10] = set-up: method as in unpublished data; conditions: preclinical studies; ref unpublished data; cited from earlier work
[11] = tested on: liver enzymes; set-up: method as in unpublished data; conditions: preclinical studies; ref unpublished data; cited from earlier work
[12] = tested on: OATP1B1; set-up: method as in unpublished data; conditions: preclinical studies; ref unpublished data; cited from earlier work
[13] = tested on: OAT1; set-up: method as in unpublished data; conditions: preclinical studies; ref unpublished data; cited from earlier work
[14] = N = 12, treatment stage given by label

SMILES: CCC(C)n1ncn(-c2ccc(N3CCN(c4ccc(OCC5COC(Cn6cncn6)(c6ccc(Cl)cc6Cl)O5)cc4)CC3)cc2)c1=O (stereo not shown) [Itraconazole]
- TEAE Alanine aminotransferase increased: no. of TEAEs [1, 14]: 1
- TEAE Alanine aminotransferase increased: no. of subjects (percent of subjects) [1, 14]: 1 (8.3)
- TEAE Basophil count increased: no. of subjects (percent of subjects) [1, 14]: 0
- TEAE Gamma-glutamyltransferase increased: no. of subjects (percent of subjects) [1, 14]: 0
- TEAE Hemoglobin decreased: no. of subjects (percent of subjects) [1, 14]: 0
- TEAE Hepatobiliary disorders: no. of subjects (percent of subjects) [1, 14]: 1 (8.3)
- TEAE Hyperbilirubinemia: no. of subjects (percent of subjects) [1, 14]: 1 (8.3)
- TEAE Hypertriglyceridemia: no. of subjects (percent of subjects) [1, 14]: 1 (8.3)
- TEAE Hyperuricemia: no. of subjects (percent of subjects) [1, 14]: 0
- TEAE Hypophosphatemia: no. of subjects (percent of subjects) [1, 14]: 0
- TEAE Investigations: no. of TEAEs [1, 14]: 2
- TEAE Investigations: no. of subjects (percent of subjects) [1, 14]: 2 (16.7)
- TEAE Lymphocyte count decreased: no. of subjects (percent of subjects) [1, 14]: 0
- TEAE Metabolism and nutrition disorders: no. of subjects (percent of subjects) [1, 14]: 1 (8.3)
- TEAE Occult blood in urine: no. of TEAEs [1, 14]: 1
- TEAE Occult blood in urine: no. of subjects (percent of subjects) [1, 14]: 1 (8.3)
- TEAE Overall total: no. of TEAEs [1, 14]: 4
- TEAE Overall total: no. of subjects (percent of subjects) [1, 14]: 4 (33.3)
- TEAE Red blood cell increased: no. of subjects (percent of subjects) [1, 14]: 0
- TEAE Total bile acid increased: no. of subjects (percent of subjects) [1, 14]: 0
- TEAE White blood cell increased: no. of subjects (percent of subjects) [1, 14]: 0
- TEAE Overall total: no. of subjects (percent of subjects) ([1]; N = 12, treatment stage given by label, listed as itraconazole): 4

SMILES: COC(=O)OCOc1c2n(ccc1=O)N([C@@H]1c3ccccc3SCc3c1ccc(F)c3F)[C@@H]1COC3(CC3)CN1C2=O [GP681, (((R)-12'-((S)-7,8-difluoro-6, 11-dihydro-2-benzothiophene-11-yl)-6′, 8′-dioxide-6′, 8′, 12′, 12a′-tetrahydro-1′H-, 4′H-spiro [cyclopropane-1, 3'-[1, 4]oxazine [3,4-c]pyridine and [2,1-f] [1,2, 4]triazine]-7′-yl)oxy) methyl carbonate]
- substrate for the BCRP transporter [2]: Neither Suraxavir Marboxil (GP681) nor its metabolite, GP1707D07, serves as substrates
- plasma concentrations of GP681 in all the rest of blood samples [3]: below the quantification limit
- inhibition of transport activity of OATP1B3 [4]: nor do they inhibit the transport activity
- substrate for the MDR1 transporter [5]: Neither Suraxavir Marboxil (GP681) nor its metabolite, GP1707D07, serves as substrates
- radioactivity recovery in feces [6]: 84.1%
- radioactivity recovery in urine [6]: 6.0%
- total radioactivity recovery rate [6]: 90.1%
- inhibition of transport activity of OAT3 [7]: nor do they inhibit the transport activity
- conversion of prodrug to active form [8]: converted to an active form GP1707D07 by carboxylesterase CES2
- inhibition of transport activity of MDR1 [9]: nor do they inhibit the transport activity
- TEAE Alanine aminotransferase increased: no. of TEAEs [1, 14]: 1
- TEAE Alanine aminotransferase increased: no. of subjects (percent of subjects) [1, 14]: 1 (8.3)
- TEAE Basophil count increased: no. of subjects (percent of subjects) [1, 14]: 0
- TEAE Gamma-glutamyltransferase increased: no. of TEAEs [1, 14]: 1
- TEAE Gamma-glutamyltransferase increased: no. of subjects (percent of subjects) [1, 14]: 1 (8.3)
- TEAE Hemoglobin decreased: no. of TEAEs [1, 14]: 1
- TEAE Hemoglobin decreased: no. of subjects (percent of subjects) [1, 14]: 1 (8.3)
- TEAE Hepatobiliary disorders: no. of subjects (percent of subjects) [1, 14]: 0
- TEAE Hyperbilirubinemia: no. of subjects (percent of subjects) [1, 14]: 0
- TEAE Hypertriglyceridemia: no. of TEAEs [1, 14]: 1
- TEAE Hypertriglyceridemia: no. of subjects (percent of subjects) [1, 14]: 1 (8.3)
- TEAE Hyperuricemia: no. of TEAEs [1, 14]: 1
- TEAE Hyperuricemia: no. of subjects (percent of subjects) [1, 14]: 1 (8.3)
- TEAE Hypophosphatemia: no. of subjects (percent of subjects) [1, 14]: 0
- TEAE Investigations: no. of TEAEs [1, 14]: 7
- TEAE Investigations: no. of subjects (percent of subjects) [1, 14]: 4 (33.3)
- TEAE Lymphocyte count decreased: no. of TEAEs [1, 14]: 1
- TEAE Lymphocyte count decreased: no. of subjects (percent of subjects) [1, 14]: 1 (8.3)
- TEAE Metabolism and nutrition disorders: no. of TEAEs [1, 14]: 2
- TEAE Metabolism and nutrition disorders: no. of subjects (percent of subjects) [1, 14]: 2 (16.7)
- TEAE Occult blood in urine: no. of TEAEs [1, 14]: 1
- TEAE Occult blood in urine: no. of subjects (percent of subjects) [1, 14]: 1 (8.3)
- TEAE Overall total: no. of TEAEs [1, 14]: 9
- TEAE Overall total: no. of subjects (percent of subjects) [1, 14]: 5 (41.7)
- TEAE Red blood cell increased: no. of TEAEs [1, 14]: 1
- TEAE Red blood cell increased: no. of subjects (percent of subjects) [1, 14]: 1 (8.3)
- TEAE Total bile acid increased: no. of TEAEs [1, 14]: 1
- TEAE Total bile acid increased: no. of subjects (percent of subjects) [1, 14]: 1 (8.3)
- TEAE White blood cell increased: no. of subjects (percent of subjects) [1, 14]: 0
- TEAE related to GP681, Alanine aminotransferase increased: no. of TEAEs [1, 14]: 1[1]
- TEAE related to GP681, Alanine aminotransferase increased: no. of subjects [1, 14]: 1[1]
- TEAE related to GP681, Gamma-glutamyltransferase increased: no. of TEAEs [1, 14]: 1[1]
- TEAE related to GP681, Gamma-glutamyltransferase increased: no. of subjects [1, 14]: 1[1]
- TEAE related to GP681, Hemoglobin decreased: no. of TEAEs [1, 14]: 1[1]
- TEAE related to GP681, Hemoglobin decreased: no. of subjects [1, 14]: 1[1]
- TEAE related to GP681, Hypertriglyceridemia: no. of TEAEs [1, 14]: 1[1]
- TEAE related to GP681, Hypertriglyceridemia: no. of subjects [1, 14]: 1[1]
- TEAE related to GP681, Hypophosphatemia: no. of TEAEs [1, 14]: 1[1]
- TEAE related to GP681, Hypophosphatemia: no. of subjects [1, 14]: 1[1]
- TEAE related to GP681, Investigations: no. of TEAEs [1, 14]: 7
- TEAE related to GP681, Investigations: no. of subjects [1, 14]: 3
- TEAE related to GP681, Lymphocyte count decreased: no. of TEAEs [1, 14]: 1[1]
- TEAE related to GP681, Lymphocyte count decreased: no. of subjects [1, 14]: 1[1]
- TEAE related to GP681, Metabolism and nutrition disorders: no. of TEAEs [1, 14]: 2[2]
- TEAE related to GP681, Metabolism and nutrition disorders: no. of subjects [1, 14]: 2[2]
- TEAE related to GP681, Occult blood in urine: no. of TEAEs [1, 14]: 1[1]
- TEAE related to GP681, Occult blood in urine: no. of subjects [1, 14]: 1[1]
- TEAE related to GP681, Overall total: no. of TEAEs [1, 14]: 9
- TEAE related to GP681, Overall total: no. of subjects [1, 14]: 4
- TEAE related to GP681, Red blood cell increased: no. of TEAEs [1, 14]: 1[1]
- TEAE related to GP681, Red blood cell increased: no. of subjects [1, 14]: 1[1]
- TEAE related to GP681, Total bile acid increased: no. of TEAEs [1, 14]: 1[1]
- TEAE related to GP681, Total bile acid increased: no. of subjects [1, 14]: 1[1]
- TEAE Overall total: no. of subjects (percent of subjects) ([1]; N = 12, treatment stage given by label, listed as Suraxavir Marboxil (GP681)): 5
- TEAE related to GP681, Overall total: no. of TEAEs ([1]; Total over the study, N = 12): 11
- TEAE related to GP681, Overall total: no. of subjects ([1]; Total over the study, N = 12): 5
- serious adverse events ([1]; whole study, 12 subjects): No serious adverse events
- detection of prodrug in plasma following oral administration [10]: scarcely detected in plasma
- route of excretion [10]: mainly excreted in feces
- inhibition or induction of liver enzymes [11]: do not significantly inhibit or induce liver enzymes
- inhibition of transport activity of OATP1B1 [12]: nor do they inhibit the transport activity
- inhibition of transport activity of OAT1 [13]: nor do they inhibit the transport activity
